Results reported in patent US7964613B2 (Asahi Kasei Pharma Corporation, priority 2007, dated 2011).

Columns and labels:
[1] = tested on: rabbit normal intraocular pressure; experiment: Intraocular pressure reducing action; type: in vivo, Japanese white rabbit; conditions: Oryctolagus cuniculus, topical, read-out: intraocular pressure reducing degree; for inhibition in vivo at 3000 µM: 3 mM aqueous solution, 50 μl to the left eye, max IOP reduction (2, 4, 6 hours) / value immediately before administration; for inhibition in vivo at 1000 µM: test compound of 1 mM, same test as Test Example 3
Procedure, shortened: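 Japanese white rabbits (~2 kg) under topical anaesthesia received 50 μl of a 3 mM aqueous test solution in the left eye, right eye untreated. IOP read by tonometer before and at 2, 4, 6 h; maximal left–right difference divided by pre-dose IOP ×100 gives % reduction.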

[2] = tested on: rat spinal canal stenosis (cauda equina compression-induced walking dysfunction) model; experiment: Rat spinal canal stenosis model, walking ability test; type: in vivo; conditions: treadmill; for walk distance compared with the solvent repetitive administration group: 14th day of repetitive administration; for Inventive compound repetitive administration group (average distance (m)): 14th day of repetitive administration started 4th day after operation, 7 or 8 animals
Text: A rat spinal canal stenosis (cauda equina compression-induced walking dysfunction) model can be prepared according to the method of Nakai, K et al. (Anesth. Analg., 94, pp. 1537-1541 (2002)) or the like. Namely, a rat is anesthetized with pentobarbital sodium, shaved on the back, and fixed in the abdominal position. After disinfection on the back with Isodine Surgical Scrub (Meiji Seika), a lumbar part is cut open along the median to expose the spine. Then, a silicone rubber of 1×4×1.5 mm (height×length×width) is inserted into the fifth lumbar vertebral canal from a small hole on the vertebral arch. Benzylpenicillin potassium (Crystalline Penicillin G Potassium Meiji, Meiji Seika) is dropped on the opened lesion and intramuscularly injected in the femoral region for the purpose of evasion of infectious diseases. The muscles and skin of the opened lesion are sutured with a ligature, and Isodine Surgical Scrub is applied to the sutured portion. Animals of sham group are also prepared according to the aforementioned method, provided that silicone rubber is not inserted.
In walking ability test, evaluation is performed by using a treadmill (Muromachi Kikai). A rat is placed on a traveling belt, adapted to the environment more than 3 minutes under a grid-electrified condition (0.04 to 4 mA), and then made to start walking from a velocity of 10 m/min, and then the velocity is increased by 5 m/min every 3 minutes. The walk is stopped, and electrical stimulation (0.04 to 4 mA) is applied to the rat which has moved to the grid for electrical stimulation provided before the traveling belt. Distance which the animal walked after the animal started the walk until the animal became unable to walk, i.e., the animal came not to walk even if a stimulation (sound, contact, electricity) was added to the animal to urge it to walk, was calculated from the walking time. Before the operation, the walking function test is carried out 3 times to perform training of walk. From the 4th day after the operation, repetitive administration of each compound of the present invention as a test compound was started, and the walking ability test was performed on the 14th day of the administration for the measurement.
Each group consisted of 7 or 8 animals, and the average distance before the administration was the average for the animals of both groups. […] It was confirmed that the compounds of the present invention were useful as medicaments for therapeutic treatment of a disease accompanied by walking dysfunction such as spinal canal stenosis.

[3] = tested on: thoracic aorta ring sample; experiment: Rat vascular smooth muscle relaxing action (phenylephrin contraction); conditions: cumulative phenylephrin, contraction relative to 60 mM KCl
Experimental: Examination of rat vascular smooth muscle relaxing action was performed as follows. A rat was anesthetized with pentobarbital sodium, and bled from the carotid artery, and then the thoracic aorta was extracted. The extracted vessel was immersed in ice-cooled Krebs-Henseleit nutrient solution bubbled with a mixed gas of 95% O2+5% CO2 to wash out the blood in the internal cavity of the vessel with the nutrient solution, and then stored overnight in the nutrient solution at 4° C. Then, connective tissues and lipids were removed from the vessel under a stereoscopic microscope, and a ring sample having a width of about 3 mm was prepared. The ring sample was hung in an organ bath containing the nutrient solution of 37° C., and a resting tension of 2.5 g was loaded on the sample. After the ring sample was stabilized for about 90 minutes, it was confirmed that a contraction reaction could be obtained by addition of 60 mM KCl alone. A test drug was added to the nutrient solution at an appropriate final concentration, and incubation was performed for 10 minutes. Then, phenylephrin was cumulatively added so that the concentration should become 1 nM, 10 nM, 100 nM, 1 μM and 10 μM.

[4] = tested on: hippocampus nerve cells; experiment: Effect of neurite outgrowth; type: cell-based, Wistar rat; conditions: 22 hours
Experimental: A Lab-Tek culture slide (4-well) was coated with poly-L-lysine (Sigma). A pregnant Wistar rat was used, and anesthetized with ether on day 18 of gestation. Then, a rat fetus was taken out from the rat, and the hippocampus was extracted from the brain of the fetus, put into a phosphate buffered physiological saline containing 0.1% trypsin, and incubated at 37° C. for 10 minutes. The hippocampus precipitated by centrifugation was ground in a medium containing 10% heat-inactivated fetal bovine serum by using a pipet to obtain hippocampus nerve cells. The cells were finally suspended in a medium containing B27 Supplement (Gibco), and plated on the preliminarily coated Lab-Tek culture slide at a density of 50,000 cells/well. After adhesion of the cells (about 2 hours), a drug was added at a desired concentration, and the slide was further incubated at 37° C. for 22 hours under 5% CO2. […]
After the incubation, the cells were fixed with 4% paraformaldehyde, and immunostained by using rabbit anti-beta-III-tubulin antibodies (Covance). Images of the nerve cells were captured into a computer by using a digital camera (DP-70, Olympus) installed in a fluorescence microscope (Olympus). Images of 20 to 30 of arbitrary sites on the slide were captured, and lengths of the axial fivers of 200 to 300 nerve cells were measured by using NIH imaging software for each drug. […]

Compound | inhibition in vivo at 3000 µM [1] [%] | inhibition in vivo at 1000 µM [1] [%] | walk distance compared with the solvent repetitive administration group [2] | Inventive compound repetitive administration group (average distance (m)) [2] [m] | IC50 [3] [nM] | neurites extended compared with non-treated nerve cells ([4]; concentration of 1 μM) [%] | neurites extended compared with non-treated nerve cells ([4]; concentration of 10 μM) [%]
CN[C@H]1CCN(S(=O)(=O)c2cccc3cncc(C)c23)C1 [Example 8-3] | ≥ 20 | ≥ 20 | extended the walk distance | 224 | – | – | –
N[C@H]1CCN(S(=O)(=O)c2cccc3cncc(Cl)c23)C1 [Example 19-1, (S)-3-Amino-1-(4-chloro-5-isoquinolinesulfonyl)pyrrolidine] | ≥ 20 | – | – | – | – | – | –
CN[C@H]1CCN(S(=O)(=O)c2cccc3cncc(Cl)c23)C1 [Example 19-3, (S)-1-(4-Chloro-5-isoquinolinesulfonyl)-3-(methylamino)pyrrolidine] | ≥ 20 | ≥ 20 | extended the walk distance | 285 | 300 | – | –
CN[C@H]1CCN(S(=O)(=O)c2cccc3c(O)ncc(Cl)c23)C1 [Example 36-1, (S)-1-(1-Hydroxy-4-chloro-5-isoquinolinesulfonyl)-3-(methylamino)pyrrolidine] | 10 to 20 | – | extended the walk distance | 298 | 100 | 28 | 43
